Patent US9738664B2, “Boronic acid inhibitors of HIV protease” (WISCONSIN ALUMNI RESEARCH FOUNDATION, priority 2014, dated 2017)

How the values were obtained:
HIV-1 protease = biological target: T1, HIV-1 protease (Human immunodeficiency virus type 1 group M subtype B, UniProt P03367, C567A/C595A/L533I/L563I/Q507K); test: biochemical
T1 construct: Double-stranded, linear DNA encoding HIV-1 protease; 8xHis (self-cleavable) (N, cleaved yes); made in house
Experimental: This peptide was used as a fluorogenic substrate for HIV protease by monitoring the fluorescence of the Edans group (5-((2-aminoethyl)amino)naphthalene-1-sulfonic acid) upon substrate hydrolysis and separation from the quenching Dabcyl group (4-((4-(dimethylamino)phenyl)azo)benzoic acid, succinimidyl ester. [6] Substrate was dissolved at 1 mM by sonication in DMF containing TFA (0.1% v/v). Stock solutions of each putative HIV protease inhibitor were generated by dissolving the inhibitor in DMF to a concentration of 50 mM and diluting in DMF to ˜100×stocks of the final assay concentrations. Assays were performed in 50 mM sodium acetate buffer, pH 5.0, containing NaCl (100 mM). Wells in a microtiter plate were charged initially with inhibitor (various concentrations) and substrate (final concentration: 10 μM). HIV protease was then added (final concentration: 50-150 μM). Reaction velocities in the assay solutions (total volume: 200 μL) were measured in quadruplicate at 7-9 inhibitor concentrations including no-inhibitor and no-enzyme controls.

HIV = test: Inhibition of HIV cytopathic toxicity in MT-4 cells (MTS cell viability); type: cell-based; details: virus from pNL4-3 at 100×TCID50, 7 days, MTS assay (FIG. 3)
Experimental: The ability of B-darunavir to inhibit the cytopathic toxicity of HIV was determined by standard methods (11). Briefly, both human lymphocyte cell line MT-4 and plasmid pNL4-3, which directs the production of infectious virions (12), were obtained from the NIH AIDS Reagent Program. […] Then, MT-4 cells were transfected with plasmid pNL4-3. Maximal virus production was detected on Day 6 post-transfection. Viral inhibition assays were conducted with 25,000 MT-4 cells in 200 μL of RPMI medium containing fetal bovine serum (10% v/v). Infections were conducted with virus at 100×TCID50 by resuspending pelleted cells in 500 μL of virus-containing medium and incubating for 4 h prior to plating with B-darunavir. After 7 days, the loss of HIV cytopathic toxicity was assessed by measuring cell viability using the MTS assay from Promega (Madison, Wis.).

MT-4 cells = test: Toxicity for MT-4 cells (growth inhibition); type: cell-based, human; details: concentrations up to 1 mM

SMILES | Ki (HIV-1 protease) [pM] | concentration that inhibits the toxicity of HIV for human lymphocytes (HIV) [nM] | inhibition of the growth of MT-4 cells (toxicity) (MT-4 cells)
CC(C)CN(C[C@@H](O)[C@H](Cc1ccccc1)NC(=O)O[C@H]1CCOC1)S(=O)(=O)c1ccc(B(O)O)cc1 [B-Amprenavir (6)] | 2.1 ± 0.3 |  | 
CC(C)CN(C[C@@H](O)[C@H](Cc1ccccc1)NC(=O)O[C@H]1CO[C@H]2OCC[C@H]21)S(=O)(=O)c1ccc(B(O)O)cc1 [B-Darunavir (9)] |  | ≥ 100 | not to cause a significant inhibition of the growth of MT-4 cells
